# Data reported in US11058690B2, “Use of cytochrome bc1 complex inhibitor in preparing pharmaceutical composition” (BEIJING WEILANZHIYUAN MEDICAL TECHNOLOGY CO., LTD., priority 2017, dated 2021).
# How the values were obtained:
# [1] = system: rat uterine smooth muscle; experiment: contraction of isolated rat uterine smooth muscle strips induced by PGF2α; assay type: cell-based; conditions: PGF2α (450 nM); for IC50: area under the contraction curve 10 minutes after drug, read-out: IC50, inhibition of uterine smooth muscle contraction
# Protocol: Female healthy Wistar rats weighing 230-270 g were used in the experiment. At 2 days before the experiment, Diethylstilbestrol suspension was injected intraperitoneally once at 0.1 mg/kg, resulting in artificial estrus. The rats were sacrificed by cervical dislocation, and the uterus was removed by laparotomy and immediately placed in a glass plate containing Tyrode's solution. Connective and adipose tissues attached to the uterine wall were carefully peeled off, the uterus was cut open along the mesangial line and laid flat on the bottom of the glass plate, then one side of the uterus was divided into left and right uterine muscle strips by using a surgical blade along the uterine contraction band running along smooth muscle, the two ends of the uterine muscle strip on one side were ligated with wires respectively, and then transferred into a nutrient tube which was aerated with oxygen and filled with 5 ml of Tyrode's solution and preheated to 37.2±0.5° C., with a lower end fixed and an upper end connected with a tension sensor. The materials stood for 20-30 minutes, liquid was changed 2-3 times, then the uterus was given a load of 1 g and kept for 30-60 minutes until the uterus had regular contraction waves, 40 mM KCL solution was provided for 10 minutes, and the function of the uterine muscle strips was evaluated. Then the muscle strips were relaxed and washed 2-3 times with Tyrode's solution, then let stand for 30 minutes; after standing, the uterine muscle strips were given a load of 1 g and kept for 30-60 minutes, and the administration and the observation were carried out after the uterine muscle strips contracted stably (i.e. regular contraction waveforms appear in a microcomputer display screen), the changes of relevant data such as contraction tension, amplitude and area under the contraction curve of the uterine smooth muscle strips were recorded, and the drug given was evaluated. During the experiment, the working temperature of the Tyrode's solution was kept at 37.2±0.5° C., and oxygen was continuously aerated into the nutrient tube with 1-2 bubbles per second. A cumulative dosing method was adopted, and 5 μl was administered each time, from low concentration to high concentration. A final drug concentration refers to the concentration of the drug dissolved in 5 ml Tyrode's solution in a […] tube.
# Fluacrypyrim (FAPM), the first strobilurin acaricide developed by BASF SE and Nippon Soda Co., Ltd., is a Qo site inhibitor of the mitochondrial cytochrome bc1 complex. […] The area under the smooth muscle contraction curve was calculated before drug intervention and 10 minutes after different doses of drug intervention respectively. A drug dose-effect curve was plotted by taking the area under the smooth muscle contraction curve caused by PGF2α as 100%, to calculate the median effective dose (IC50 value) of the drug for inhibiting uterine smooth muscle contraction.
# [2] = system: rat uterine smooth muscle; experiment: contraction of rat uterine smooth muscle induced by oxytocin; assay type: cell-based; conditions: oxytocin (1 mU/ml)
# Protocol: (§1) Female healthy Wistar rats weighing 230-270 g were used in the experiment. At 2 days before the experiment, Diethylstilbestrol suspension was injected intraperitoneally once at 0.1 mg/kg, resulting in artificial estrus. The rats were sacrificed by cervical dislocation, and the uterus was removed by laparotomy and immediately placed in a glass plate containing Tyrode's solution. […] The materials stood for 20-30 minutes, liquid was changed 2-3 times, then the uterus was given a load of 1 g and kept for 30-60 minutes until the uterus had regular contraction waves, 40 mM KCL solution was provided for 10 minutes, and the function of the uterine muscle strips was evaluated. Then the muscle strips were relaxed and washed 2-3 times with Tyrode's solution, then let stand for 30 minutes; after standing, the uterine muscle strips were given a load of 1 g and kept for 30-60 minutes, and the administration and the observation were carried out after the uterine muscle strips contracted stably (i.e. regular contraction waveforms appear in a microcomputer display screen), the changes of relevant data such as contraction tension, amplitude and area under the contraction curve of the uterine smooth muscle strips were recorded, and the drug given was evaluated. […]
# [3] = system: rat uterine smooth muscle; experiment: contraction of rat uterine smooth muscle induced by acetylcholine; assay type: cell-based; conditions: acetylcholine (0.25 μM)
# Protocol: as §1
# [4] = system: rat uterine smooth muscle; experiment: contraction of rat uterine smooth muscle induced by potassium chloride; assay type: cell-based; conditions: potassium chloride (16 mM)
# Protocol: as §1
# [5] = system: Mouse mononuclear macrophage RAW 264.7; experiment: nitric oxide production by LPS-stimulated macrophages (Griess assay); assay type: cell-based; conditions: LPS 1 μg/mL, 24 h
# Kunming male mice = experiment: acetic acid writhing test on mice; assay type: in vivo, mouse; conditions: for Writhe starting time / Number of writhing times: Table 3; for Number of writhing times: within 30 min
# Kunming female mice = experiment: PGF2α-induced dysmenorrhea model in mice (diethylstilbestrol sensitization); assay type: in vivo, mouse; conditions: for Number of writhing times: within 30 min
# Protocol: A mouse dysmenorrhea model was established with reference to Yang L., Cao Z., Yu B. & Chai C. An in vivo mouse model of primary dysmenorrhea. Exp Anim. 2015, August 64, 295-303. Adult healthy Kunming female mice were randomly grouped, 10 mice in each group. Experimental mice were intragastrically given diethylstilbestrol 0.2 mg daily for 12 days. Different kinds and dosages of the inhibitors of the cytochrome bc1 complex were given intraperitoneally or intragastrically 30 min after the last administration. Indometacin (50 mg/kg) was injected intraperitoneally as positive control, PGF2α (1.3 mg/kg) or oxytocin (20 U/kg) was injected intraperitoneally 1 h later, and the writhe starting time (reaction latency) and the number of writhing times within 30 min were observed and recorded.
# mice = experiment: xylene-induced mouse ear swelling test; assay type: in vivo
# Protocol: Fifty healthy adult male mice were randomly divided into 5 groups. […] […] One hour after administration, 20 μL of xylene was evenly applied to both sides of the right ear of mouse, and xylene was not applied to the left ear as self control. One hour later, the two ears were cut off, and two ear pieces were removed from the same parts of the two ears with a 6 mm hole punch. The two ear pieces were weighed on a precision balance, and the swelling degree (right ear piece weight-left ear piece weight) and swelling inhibition rate (right ear piece weight-left ear piece weight)/left ear piece weight×100%) were calculated.
# SD rats = experiment: carrageenan-induced rat paw swelling test; assay type: in vivo
# Protocol: Eighteen healthy adult male mice were randomly divided into 3 groups. FAPM (100 mg/kg) was administered intraperitoneally once a day for 3 consecutive days. The control group was injected with the same amount of solvent, and the positive drug dexamethasone (4 mg/kg) was administered intragastrically once a day for 3 consecutive days. Thirty minutes after the last administration, 0.1 mL of 1% carrageenan was injected subcutaneously into the right hind paw of each rat, and the plantar thickness was measured before injection and 1, 2 and 3 hours after injection. Three hours later, the rats were sacrificed by dislocation. The feet were cut off from the knee joints and weighed on a precision balance. The swelling degree of the paw (right foot weight-left foot weight) was calculated.
# [6] = Table 7, 100 mg/Kg intraperitoneal
# [7] = Table 7, 200 mg/Kg intraperitoneal
structure (smiles),measurement,setting,value
"CO/C=C(/C(=O)OC)c1ccccc1COc1cc(C(F)(F)F)nc(OC(C)C)n1 [FAPM, fluacrypyrim]",inhibitory effect on PGF2α-induced contraction,[1]; amplitude and frequency,in a dose-dependent manner
same,IC50,[1],1690 ± 160 nM
same,IC50,"[1]; Rattus norvegicus, 10 min",1840 ± 80 nM
same,IC50,[2],1600 ± 80 nM
same,IC50,[3],1360 ± 40 nM
same,IC50,[4],1210 ± 70 nM
same,Maximum inhibition rate,[5]; in %,80%
same,IC50,"[5]; Mus musculus, RAW264.7, read-out: IC50, NO production",3800 nM
same,curative effect compared with indomethacin,Kunming male mice; 100 mg/Kg versus indomethacin 50 mg/Kg,equivalent to indomethacin at 50 mg/Kg
same,writhe starting time (reaction latency) compared with control group,"Kunming male mice; FAPM and trifloxystrobin intraperitoneal, azoxystrobin intragastric",significantly prolonged
same,Writhe starting time,Kunming male mice; 50 mg/Kg intraperitoneal,3.4 ± 1.1 min
same,Number of writhing times,"Kunming male mice; 50 mg/Kg intraperitoneal, 1 hour before acetic acid",25.3 ± 4.7
same,Writhe starting time,Kunming male mice; 100 mg/Kg intraperitoneal,4.6 ± 1.5 min
same,Number of writhing times,Kunming male mice; 100 mg/Kg intraperitoneal,17.6 ± 3.5
same,Writhe starting time,Kunming male mice; 200 mg/Kg intraperitoneal,11.9 ± 2.6 min
same,Number of writhing times,Kunming male mice; 200 mg/Kg intraperitoneal,2.4 ± 2.2
same,curative effect compared with indomethacin,Kunming female mice; 50 mg/Kg versus indomethacin 50 mg/Kg,equivalent to indomethacin at 50 mg/Kg
same,Writhe starting time,Kunming female mice; 200 mg/Kg intraperitoneal,significantly prolonged
same,effect on number of writhing times,"Kunming female mice; FAPM intraperitoneal, azoxystrobin intragastric, 50, 100 and 200 mg/Kg one hour before",in a dose-dependent manner
same,Writhe starting time,"Kunming female mice; Table 7, 50 mg/Kg intraperitoneal",1.24 ± 0.66 min
same,Number of writhing times,"Kunming female mice; Table 7, 50 mg/Kg intraperitoneal, 1 h before PGF2α (1.3 mg/kg)",18.3 ± 3.3
same,Writhe starting time,Kunming female mice; [6],1.43 ± 0.73 min
same,Number of writhing times,Kunming female mice; [6],12.5 ± 1.7
same,Writhe starting time,Kunming female mice; [7],2.15 ± 0.34 min
same,Number of writhing times,Kunming female mice; [7],5.8 ± 1.2
same,Ear swelling,"mice; 100 mg/Kg intraperitoneal, 1 hour after xylene",7.83 ± 3.85 mg
same,xylene-induced mouse ear swelling,mice; 100 mg/kg intraperitoneal,significantly inhibited
same,Paw swelling thickness 1 h,"SD rats; 100 mg/Kg intraperitoneal once a day for 3 days, 1 h after carrageenan",5.72 ± 0.29 mm
same,Paw swelling thickness 2 h,"SD rats; 100 mg/Kg intraperitoneal once a day for 3 days, 2 h after carrageenan",5.92 ± 0.19 mm
same,Paw swelling thickness 3 h,"SD rats; 100 mg/Kg intraperitoneal once a day for 3 days, 3 h after carrageenan",6.24 ± 0.20 mm
same,Paw swelling (right foot weight-left foot weight),"SD rats; 100 mg/Kg intraperitoneal once a day for 3 days, 3 hours after carrageenan",0.834 ± 0.32 g
same,carrageenan-induced rat paw swelling,SD rats; 100 mg/kg intraperitoneal,significantly inhibited
